According to paper PMC9931771, “Surufatinib plus toripalimab in patients with advanced solid tumors: a single-arm, open-label, phase 1 trial” (Journal of Cancer Research and Clinical Oncology, 2022):
Where two headings read alike, the source gives them in different places.

How the values were obtained:
[1] = Phase 1 trial: pharmacokinetics of surufatinib and toripalimab (non-compartmental analysis); assay type: in vivo, human; details: for Surufatinib accumulation ratio of AUC0-τ: Cycle 2 Day 1 compared to Cycle 1 Day 1; for AUC / Cmax / Tmax / Vd/F / half-life: human, in vivo, oral; for AUC: read-out: Surufatinib AUC0-τ, geometric mean (CV%); for Cmax: read-out: Surufatinib Cmax, geometric mean (CV%); for Tmax: read-out: Surufatinib Tmax, median; for Vd/F: read-out: Surufatinib Vd/F, geometric mean (CV%); for half-life: read-out: Surufatinib t1/2, median (converted)
From the text: Blood samples were collected for PK evaluation at multiple time points on Cycle 1 Day 1, Cycle 2 Day 1, and Cycle 3 Day 1 for surufatinib and toripalimab, respectively.
DLT events were based on the DLT evaluable population, including patients who received at least 1 cycle of treatment and completed all safety assessments within the DLT assessment window or discontinued early due to DLT in the dose-escalation stage. All safety analyses, progression-free survival (PFS), and overall survival (OS) statistics were based on the safety population, including patients who received at least 1 dose of any study drug. All efficacy endpoints, excluding PFS and OS, were analyzed based on the efficacy evaluable population, including all patients who received at least 1 dose of any study drug and had tumor assessment at baseline and post drug administration prior to initiation of new anti-cancer therapies. The PK analysis was based on the PK population, which included all patients who received at least one dose of the study drug, had at least one PK sample collected and analyzed, and had no protocol deviation that might affect the PK data.
Two-sided 95% confidence interval (CI) of ORR and DCR were computed using the Exact (Clopper–Pearson) method. For time-to-event variables [PFS, OS, DoR (duration of response) and TTR (time to response)], median event time as well as the corresponding 95% CI were estimated using Kaplan–Meier method. All statistical analyses were performed using SAS 9.4 software. Adverse events (AEs) were graded by NCI CTCAE (Common Terminology Criteria for Adverse Events) v4.03, and coded using the Medical Dictionary for Regulatory Activities (MedDRA) v23.1. Treatment-related AEs (TRAEs) referred to AEs related to surufatinib or toripalimab, which were judged by the investigators. PK parameters were calculated by non-compartmental analysis using Phoenix WinNonlin v8.0.

[2] = system: advanced well-differentiated pancreatic NET; set-up: method as in Xu et al. [2020a], [b]; details: phase 3 trial, ref Xu et al. [2020a], [b]; cited from earlier work
[3] = system: tumor-associated macrophages (TAMs); set-up: method as in Zhou et al. [2017]; details: preclinical studies; ref Zhou et al. [2017]; cited from earlier work
[4] = system: advanced well-differentiated extrapancreatic NET; set-up: method as in Xu et al. [2020a], [b]; details: phase 3 trial, ref Xu et al. [2020a], [b]; cited from earlier work
[5] = surufatinib 200 mg + toripalimab 240 mg, C1D1, N 6
[6] = surufatinib 200 mg + toripalimab 240 mg, C1D1, footnote 1 (N 4)
[7] = surufatinib 200 mg + toripalimab 240 mg, C2D1, N 6
[8] = surufatinib 200 mg + toripalimab 240 mg, C3D1, N 3
[9] = surufatinib 200 mg + toripalimab 240 mg, C3D1, footnote 3 (N 2)
[10] = surufatinib 250 mg + toripalimab 240 mg, C1D1, N 12
[11] = surufatinib 250 mg + toripalimab 240 mg, C2D1, N 11
[12] = surufatinib 250 mg + toripalimab 240 mg, C3D1, N 9
[13] = surufatinib 250 mg + toripalimab 240 mg, C3D1, footnote 3 (N 8)
[14] = surufatinib 300 mg + toripalimab 240 mg, C1D1, N 12
[15] = surufatinib 300 mg + toripalimab 240 mg, C1D1, footnote 1 (N 10)
[16] = surufatinib 300 mg + toripalimab 240 mg, C2D1, N 10
[17] = surufatinib 300 mg + toripalimab 240 mg, C3D1, N 10

In the case of `Cc1cc2cc(Oc3ccnc(Nc4cccc(CS(=O)(=O)NCCN(C)C)c4)n3)ccc2[nH]1` [surufatinib], the “Surufatinib accumulation ratio of AUC0-τ” value ([1]; 200 mg QD) is reported as 1.8, the “Surufatinib accumulation ratio of AUC0-τ” value ([1]; 250 mg QD) is reported as 2.0 and the “Surufatinib accumulation ratio of AUC0-τ” value ([1]; 300 mg QD) is reported as 2.1. The AUC ([1]; surufatinib 200 mg + toripalimab 240 mg, C1D1, N 4) was 1840 ng·h/mL, the Cmax [1, 5] was 277 ng/mL and the Tmax [1, 5] was 1.98 h. It also gave a Vd/F [1, 6] of 926 L, a half-life [1, 6] of 4.49 h and an AUC ([1]; surufatinib 200 mg + toripalimab 240 mg, C2D1, N 3) of 3010 ng·h/mL. For the same compound, the Cmax [1, 7] was 268 ng/mL, the Tmax [1, 7] was 2.97 h and the half-life ([1]; surufatinib 200 mg + toripalimab 240 mg, C2D1, footnote 4 (N 3)) was 13.1 h. For the same compound, the AUC ([1]; surufatinib 200 mg + toripalimab 240 mg, C3D1, N 2) was 2300 ng·h/mL, the Cmax [1, 8] was 239 ng/mL and the Tmax [1, 8] was 1.98 h. The Vd/F [1, 9] was 1080 L, the half-life [1, 9] was 10.1 h and the AUC [1, 10] was 1840 ng·h/mL. For the same compound, the Cmax [1, 10] was 289 ng/mL, the Tmax [1, 10] was 1.6 h and the Vd/F [1, 10] was 1660 L. The half-life [1, 10] was 11.1 h, the AUC [1, 11] was 3610 ng·h/mL and the Cmax [1, 11] was 407 ng/mL. The Tmax [1, 11] was 2 h, the half-life [1, 11] was 11.9 h and the AUC ([1]; surufatinib 250 mg + toripalimab 240 mg, C3D1, N 8) was 2400 ng·h/mL. The Cmax [1, 12] was 310 ng/mL, the Tmax [1, 12] was 1.93 h and the Vd/F [1, 13] was 2540 L. The half-life [1, 13] was 15.6 h, the AUC ([1]; surufatinib 300 mg + toripalimab 240 mg, C1D1, N 10) was 1880 ng·h/mL and the Cmax [1, 14] was 228 ng/mL. The Tmax [1, 14] was 2 h, the Vd/F [1, 15] was 1620 L and the half-life [1, 15] was 8.12 h. The AUC ([1]; surufatinib 300 mg + toripalimab 240 mg, C2D1, N 9) was 3670 ng·h/mL, the Cmax [1, 16] was 281 ng/mL and the Tmax [1, 16] was 2.97 h. The half-life ([1]; surufatinib 300 mg + toripalimab 240 mg, C2D1, footnote 4 (N 8)) was 14.4 h, the AUC [1, 17] was 3500 ng·h/mL and the Cmax [1, 17] was 361 ng/mL. The Tmax [1, 17] was 2 h, the Vd/F [1, 17] was 1510 L and the half-life [1, 17] was 12.2 h. For the same compound, the “Surufatinib CL/F, geometric mean (CV%)” value [1, 6] was 89.5 (23.9) ^1 L/h, the “Surufatinib CL/F, geometric mean (CV%)” value [1, 9] was 87.0 (24.3) ^3 L/h and the “Surufatinib CL/F, geometric mean (CV%)” value [1, 10] was 110 (34.6) L/h. The “Surufatinib CL/F, geometric mean (CV%)” value [1, 13] was 104 (45.0)^3 L/h, the “Surufatinib CL/F, geometric mean (CV%)” value [1, 15] was 134 (30.7) ^1 L/h and the “Surufatinib CL/F, geometric mean (CV%)” value [1, 17] was 84.3 (34.9) L/h. The DCR [2] was 80.8%, the ORR [2] was 19.2% and the “Effect on M1 TAMs” value [3] was “increased”. The “Effect on M2 tumor-associated macrophages (TAMs)” value [3] was “decreased”, the DCR [4] was 86.5% and the ORR [4] was 10.3%.
